Assay results reported in paper PMC6134108, “Nystatin-like Pseudonocardia polyene B1, a novel disaccharide-containing antifungal heptaene antibiotic” (Scientific Reports, 2018).
Read-outs that look alike come from different tables or passages of the source.

Key:
ICR mice [1] = assay: Single intravenous dose acute toxicity; assay type: in vivo; settings: male
Method: (§1) All in vivo mouse toxicity studies were conducted according to Testing Guidelines for Safety Evaluation of Drugs[32] and the Organisation for Economic Co-operation and Development (OECD) Guideline[33]. Male and female ICR mice were used 7 weeks old for the toxicity test. […] The single doses were 1, 2.5, and 5 mg per kg body weight.

[2] = Single intravenous dose acute toxicity; assay type: in vivo, mice; settings: ICR, mouse, in vivo, single intravenous administration
Method: as §1

ICR mice [3] = assay: 7-day repeated intravenous dose toxicity; assay type: in vivo
Method: (§2) All in vivo mouse toxicity studies were conducted according to Testing Guidelines for Safety Evaluation of Drugs[32] and the Organisation for Economic Co-operation and Development (OECD) Guideline[33]. Male and female ICR mice were used 7 weeks old for the toxicity test. […]

[4] = 7-day repeated intravenous dose toxicity; assay type: in vivo, mice; settings: both sexes, ICR, mouse, in vivo; mice, 7-day repeated intravenous doses; read-out: MTD, maximal tolerated dose
Method: as §2

in vivo = settings: male, SD, rat, iv, 0.5 mg/kg
horse blood cells = assay type: cell-based; settings: 90% hemolysis against horse blood cells; ± percentage standard deviation
Method: For the minimum inhibitory concentration (MIC) assay, strains for testing were grown on YPD agar for 24 hours, and subcultured to YPD broth medium. Whole strains were incubated for 18 hours at 35 °C by shaking incubator. Grown organisms were diluted with fresh RPMI 1640 medium to appropriate concentration, 5 × 10^4 CFU/ml. Cultures were inoculated to 96-well plates containing antifungal medium. All compounds were dissolved using Dimethyl Sulfoxide (DMSO) and diluted broth media. Fungal diluted solution and antifungal medium were mixed at 1:1 ratio so total 200 ul mixed medium was made. Whole experiment plates were incubated for 24 hours at 37 °C. […] The MICs were calculated in duplicate using the Clinical and Laboratory Standards Institute M27-A3 microbroth methodology. Hemolysis experiments and the 3-(4,5-dimethylthiazol-2-yl)-5-(3-carboxymethoxyphenyl)-2-(4-sulfophenyl)-2H-tetrazolium (MTS) cell proliferation colorimetric assay were performed following known procedures[12],[27],[29].

[5] = test system: ergosterol-containing membranes; assay: Preliminary SPR experiments; assay type: binding; settings: ergosterol-containing membranes, unpublished data

For C[C@@H]1[C@H](O)[C@@H](C)/C=C/C=C/C=C/C=C/C=C/C=C/C=C/[C@H](O[C@@H]2O[C@H](C)[C@@H](O)[C@H](N)[C@@H]2O)C[C@@H]2O[C@](O)(C[C@@H](O)C[C@@H](O)[C@H](O)CC[C@@H](O)C[C@@H](O)CC(=O)O[C@H]1C)C[C@H](O)[C@H]2C(=O)O [Amphotericin B, amphotericin B], the “Deaths on day after start of treatment” value (ICR mice [1]; single iv 2.5mg/kg, day 6) was 0, the “Deaths on day after start of treatment” value (ICR mice [1]; single iv 2.5mg/kg, day 7) was 0 and the “Deaths on day after start of treatment” value (ICR mice [1]; single iv 5mg/kg, day 0) was 5. The “Deaths on day after start of treatment” value (ICR mice [1]; single iv 5mg/kg, day 1) was 0, the “Deaths on day after start of treatment” value (ICR mice [1]; single iv 5mg/kg, day 2) was 0 and the “Deaths on day after start of treatment” value (ICR mice [1]; single iv 5mg/kg, day 3) was 0. For the same compound, the “Deaths on day after start of treatment” value (ICR mice [1]; single iv 5mg/kg, day 4) was 0, the “Deaths on day after start of treatment” value (ICR mice [1]; single iv 5mg/kg, day 5) was 0 and the “Deaths on day after start of treatment” value (ICR mice [1]; single iv 5mg/kg, day 6) was 0. For the same compound, the “Deaths on day after start of treatment” value (ICR mice [1]; single iv 5mg/kg, day 7) was 0, the LD50 at 7 days ([2]; female mice, read-out: median lethal dose (LD50)) was 1.6 mg/kg and the LD50 at 7 days ([2]; male mice, read-out: median lethal dose (LD50)) was 2.95 mg/kg. For the same compound, the LD50 at 7 days ([2]; both sexes, mice, read-out: LD50, median lethal dose (dose causing 50% mortality)) was 2.3 mg/kg, the “Deaths on day after start of treatment” value (ICR mice [3]; female, repeated iv 0.5mg/kg, day 0) was 0 and the “Deaths on day after start of treatment” value (ICR mice [3]; female, repeated iv 0.5mg/kg, day 1) was 0. The “Deaths on day after start of treatment” value (ICR mice [3]; female, repeated iv 0.5mg/kg, day 2) was 0, the “Deaths on day after start of treatment” value (ICR mice [3]; female, repeated iv 0.5mg/kg, day 3) was 0 and the “Deaths on day after start of treatment” value (ICR mice [3]; female, repeated iv 0.5mg/kg, day 4) was 0. The “Deaths on day after start of treatment” value (ICR mice [3]; female, repeated iv 0.5mg/kg, day 5) was 0, the “Deaths on day after start of treatment” value (ICR mice [3]; female, repeated iv 0.5mg/kg, day 6) was 0 and the “Deaths on day after start of treatment” value (ICR mice [3]; female, repeated iv 0.5mg/kg, day 7) was 0. For the same compound, the “Deaths on day after start of treatment” value (ICR mice [3]; female, repeated iv 1.5mg/kg, day 0) was 0, the “Deaths on day after start of treatment” value (ICR mice [3]; female, repeated iv 1.5mg/kg, day 1) was 0 and the “Deaths on day after start of treatment” value (ICR mice [3]; female, repeated iv 1.5mg/kg, day 2) was 0. For the same compound, the “Deaths on day after start of treatment” value (ICR mice [3]; female, repeated iv 1.5mg/kg, day 3) was 0, the “Deaths on day after start of treatment” value (ICR mice [3]; female, repeated iv 1.5mg/kg, day 4) was 0 and the “Deaths on day after start of treatment” value (ICR mice [3]; female, repeated iv 1.5mg/kg, day 5) was 0. The “Deaths on day after start of treatment” value (ICR mice [3]; female, repeated iv 1.5mg/kg, day 6) was 0, the “Deaths on day after start of treatment” value (ICR mice [3]; female, repeated iv 1.5mg/kg, day 7) was 0 and the “Deaths on day after start of treatment” value (ICR mice [3]; male, repeated iv 0.5mg/kg, day 0) was 0. For the same compound, the “Deaths on day after start of treatment” value (ICR mice [3]; male, repeated iv 0.5mg/kg, day 1) was 0, the “Deaths on day after start of treatment” value (ICR mice [3]; male, repeated iv 0.5mg/kg, day 2) was 0 and the “Deaths on day after start of treatment” value (ICR mice [3]; male, repeated iv 0.5mg/kg, day 3) was 0. The “Deaths on day after start of treatment” value (ICR mice [3]; male, repeated iv 0.5mg/kg, day 4) was 0, the “Deaths on day after start of treatment” value (ICR mice [3]; male, repeated iv 0.5mg/kg, day 5) was 0 and the “Deaths on day after start of treatment” value (ICR mice [3]; male, repeated iv 0.5mg/kg, day 6) was 0. The “Deaths on day after start of treatment” value (ICR mice [3]; male, repeated iv 1.5mg/kg, day 0) was 0, the “Deaths on day after start of treatment” value (ICR mice [3]; male, repeated iv 1.5mg/kg, day 1) was 0 and the “Deaths on day after start of treatment” value (ICR mice [3]; male, repeated iv 1.5mg/kg, day 2) was 0. The “Deaths on day after start of treatment” value (ICR mice [3]; male, repeated iv 1.5mg/kg, day 3) was 0, the “Deaths on day after start of treatment” value (ICR mice [3]; male, repeated iv 1.5mg/kg, day 4) was 0 and the “Deaths on day after start of treatment” value (ICR mice [3]; male, repeated iv 1.5mg/kg, day 5) was 0. For the same compound, the “Deaths on day after start of treatment” value (ICR mice [3]; male, repeated iv 1.5mg/kg, day 6) was 1, the MTD at 7 days [4] was 1.5 mg/kg and the half-life (in vivo; in vivo) was 8.3 h. For the same compound, the AUC(0-inf) (in vivo; plasma) was 1680 ng·h/mL, the AUC(0-t) (in vivo; plasma) was 415 ng·h/mL and the MRT inf (in vivo; plasma) was 11.6 h. The Vd (in vivo; plasma) was 3.5 L/kg, the clearance (in vivo; plasma) was 5 mL/min/kg and the “Hemolytic activity (MHC, minimum hemolytic concentration)” value (horse blood cells) was 4.65 ± 0.17 µg/mL. For the same compound, the “affinity compared with NPP B1” value [5] was “higher affinity”.
